Experimental data published in ChEMBL document CHEMBL1157446, “Cubyl amides: novel P2X7 receptor antagonists” (Bioorg Med Chem Lett, 2008).
Calls of active or inactive are those of the source. The rule behind the calls is not given here.

Legend:
[1] = target: T1, P2X purinoceptor 7 (Rattus norvegicus) (UniProt Q64663); experiment: Antagonist activity at P2X7R in BzATP-stimulated rat spinal cord assessed as decrease in fluorescent propidium iodide dye uptake at 1 uM; type: functional
T1 sequence (whole entry): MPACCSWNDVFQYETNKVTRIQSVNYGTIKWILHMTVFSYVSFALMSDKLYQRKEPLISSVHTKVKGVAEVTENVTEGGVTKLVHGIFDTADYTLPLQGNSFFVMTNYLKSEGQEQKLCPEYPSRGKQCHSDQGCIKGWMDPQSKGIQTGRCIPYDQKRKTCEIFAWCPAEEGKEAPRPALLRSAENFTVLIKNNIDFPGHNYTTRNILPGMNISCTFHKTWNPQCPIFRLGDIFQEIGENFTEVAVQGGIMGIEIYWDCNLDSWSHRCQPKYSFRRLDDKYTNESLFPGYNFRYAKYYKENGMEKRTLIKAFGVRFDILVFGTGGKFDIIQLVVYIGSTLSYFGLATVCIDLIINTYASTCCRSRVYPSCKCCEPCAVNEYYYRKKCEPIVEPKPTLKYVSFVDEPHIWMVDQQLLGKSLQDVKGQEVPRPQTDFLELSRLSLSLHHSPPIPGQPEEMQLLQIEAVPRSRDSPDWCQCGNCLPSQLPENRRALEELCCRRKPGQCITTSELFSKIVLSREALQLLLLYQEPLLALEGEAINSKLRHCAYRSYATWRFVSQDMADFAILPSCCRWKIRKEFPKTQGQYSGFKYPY

[2] = target: P2Y purinoceptor 1 (Homo sapiens) (UniProt P47900); experiment: Activity at P2Y1 expressed in HEK293 cells at 10 uM to 1 nM; type: cell-based
[3] = target: P2Y purinoceptor 2 (Homo sapiens) (UniProt P41231); experiment: Activity at P2Y2 receptor expressed in HEK293 cells at 10 uM to 1 nM; type: cell-based
[4] = target: P2Y purinoceptor 4 (Homo sapiens) (UniProt P51582); experiment: Agonist activity at P2Y4 receptor expressed in HEK293 cells at 10 uM to 1 nM; type: functional, cell-based
Chain of P2Y purinoceptor 4 (Homo sapiens) (P51582 whole entry): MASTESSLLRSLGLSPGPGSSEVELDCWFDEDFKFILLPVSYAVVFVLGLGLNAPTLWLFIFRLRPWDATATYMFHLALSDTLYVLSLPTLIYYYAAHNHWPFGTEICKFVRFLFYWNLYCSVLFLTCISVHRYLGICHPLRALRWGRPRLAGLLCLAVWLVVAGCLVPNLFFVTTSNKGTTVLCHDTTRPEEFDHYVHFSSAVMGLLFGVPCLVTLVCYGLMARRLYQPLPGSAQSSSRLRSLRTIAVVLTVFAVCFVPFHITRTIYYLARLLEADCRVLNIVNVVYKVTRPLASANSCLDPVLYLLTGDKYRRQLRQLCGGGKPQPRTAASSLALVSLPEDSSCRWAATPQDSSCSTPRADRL

Chain of P2Y purinoceptor 2 (Homo sapiens) (P41231 whole entry): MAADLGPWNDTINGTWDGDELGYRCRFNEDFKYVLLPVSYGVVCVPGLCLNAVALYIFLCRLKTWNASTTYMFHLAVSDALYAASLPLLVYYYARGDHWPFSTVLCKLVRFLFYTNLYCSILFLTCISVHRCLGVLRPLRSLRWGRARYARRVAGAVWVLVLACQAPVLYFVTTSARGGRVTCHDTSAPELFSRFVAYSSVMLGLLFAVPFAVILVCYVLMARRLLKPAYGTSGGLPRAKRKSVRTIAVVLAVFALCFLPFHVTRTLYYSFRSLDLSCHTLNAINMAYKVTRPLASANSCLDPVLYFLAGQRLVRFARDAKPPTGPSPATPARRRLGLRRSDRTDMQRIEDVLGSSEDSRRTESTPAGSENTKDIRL
Chain of P2Y purinoceptor 1 (Homo sapiens) (P47900 whole entry): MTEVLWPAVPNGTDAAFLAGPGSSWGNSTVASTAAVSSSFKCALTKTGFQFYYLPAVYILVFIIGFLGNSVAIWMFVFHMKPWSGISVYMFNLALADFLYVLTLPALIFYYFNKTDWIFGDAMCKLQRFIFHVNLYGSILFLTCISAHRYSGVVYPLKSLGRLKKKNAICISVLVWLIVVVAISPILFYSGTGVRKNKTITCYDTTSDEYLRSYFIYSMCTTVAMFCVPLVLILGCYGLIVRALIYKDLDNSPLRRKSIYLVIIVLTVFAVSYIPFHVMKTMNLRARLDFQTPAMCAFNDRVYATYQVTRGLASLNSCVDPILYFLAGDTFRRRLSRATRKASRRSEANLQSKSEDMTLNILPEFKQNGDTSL

| Structure (SMILES) | Activity [1] | Activity [2] | Activity [3] | Activity [4] |
| --- | --- | --- | --- | --- |
| COc1ccc(Cl)c(C(=O)NCC23CC4CC(CC(C4)C2)C3)c1 | Active | inactive | inactive | inactive |
| COc1ccc(Cl)c(C(=O)NCC23C4C5C6C4C2C6C53)c1 (centres undefined) | Active | inactive | inactive | inactive |
| O=C(NCC12CC3CC(CC(C3)C1)C2)c1ccccc1F | Active | inactive | inactive | inactive |
| O=C(NCC12CC3CC(CC(C3)C1)C2)c1ccc(F)cc1 | Active | inactive | inactive | inactive |
| O=C(NCC12C3C4C5C3C1C5C42)c1ccc(F)cc1 (centres undefined) | Active | inactive | inactive | inactive |
| O=C(NCC12C3C4C5C3C1C5C42)c1ccccc1F (centres undefined) | Active | inactive | inactive | inactive |
